Results from patent US7674795B2, “Fluorene derivatives, composition containing said derivatives and the use thereof” (Aventis Pharma SA, priority 2005, dated 2010).
Structures can show the parent of a compound that is named as a salt. Where two headings read alike, the source gives them in different places.

Target: Hsp82 (Saccharomyces cerevisiae, UniProt P02829)
Test: PK/LDH enzyme coupling test of the ATPase activity of Hsp82 (NADH decrease at 340 nm)
Format: biochemical
Details: 1 μM Hsp82, 250 μM ATP, 37° C., pyruvate kinase/lactate dehydrogenase coupling
Source text: The formation of ADP due to the ATPase activity of Hsp82 was utilized for developing another method of evaluating the enzymatic activity of this enzyme by application of an enzyme coupling system employing pyruvate kinase (PK) and lactate dehydrogenase (LDH). In this spectrophotometric method of the kinetic type, the PK catalyses the formation of ATP and of pyruvate starting from phosphoenol-pyruvate (PEP) and the ADP produced by HSP82. The pyruvate that formed, an LDH substrate, is then converted to lactate in the presence of NADH. In this case, the decrease in the concentration of NADH, measured by the decrease in absorbance at wavelength of 340 nm, is proportional to the concentration of ADP produced by HSP82. […] This mixture is preincubated at 37° C. for 30 min before adding 3.77 units of LDH and 3.77 units of PK. The reaction is started by adding the product to be evaluated, in variable concentrations, and of Hsp82, at a concentration of 1 μM. The enzymatic activity of Hsp82 is then measured continuously in a microplate reader at 37° C., at wavelength of 340 nm. The initial reaction rate is found by measuring the slope of the tangent at the origin of the recorded curve. The enzymatic activity is expressed as μM of ADP formed per minute. The effect of the various products tested is expressed as percentage of inhibition of ATPase activity, using the following codes: • A: […]

Chain of Hsp82 (P02829 whole entry): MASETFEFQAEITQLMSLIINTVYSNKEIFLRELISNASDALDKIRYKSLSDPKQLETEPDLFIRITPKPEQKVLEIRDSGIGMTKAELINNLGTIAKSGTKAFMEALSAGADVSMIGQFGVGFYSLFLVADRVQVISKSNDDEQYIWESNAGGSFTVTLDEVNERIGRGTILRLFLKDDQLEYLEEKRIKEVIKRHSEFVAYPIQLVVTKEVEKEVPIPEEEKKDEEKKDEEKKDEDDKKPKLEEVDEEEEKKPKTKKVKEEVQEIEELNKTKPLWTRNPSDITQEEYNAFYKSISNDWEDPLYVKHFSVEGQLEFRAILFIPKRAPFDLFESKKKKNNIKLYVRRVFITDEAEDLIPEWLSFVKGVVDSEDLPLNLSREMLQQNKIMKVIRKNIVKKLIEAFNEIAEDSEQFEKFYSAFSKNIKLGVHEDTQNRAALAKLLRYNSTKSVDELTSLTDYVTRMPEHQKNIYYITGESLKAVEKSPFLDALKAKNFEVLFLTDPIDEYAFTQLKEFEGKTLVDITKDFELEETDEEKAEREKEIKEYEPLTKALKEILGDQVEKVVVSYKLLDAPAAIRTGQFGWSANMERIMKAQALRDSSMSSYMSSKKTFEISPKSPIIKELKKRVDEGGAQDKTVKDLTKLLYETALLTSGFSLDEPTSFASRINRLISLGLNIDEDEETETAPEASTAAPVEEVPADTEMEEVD

Compound | IC50 (Hsp82 ATPase IC50 μM) [µM] | IC50 (read-out: Hsp82 ATPase IC50) [µM]
NC(=O)NC1c2ccccc2-c2c(-c3nc4ccncc4[nH]3)cccc21 (racemic) [Example 28, [4-(3H-imidazo[4,5-c]pyridin-2-yl)-9H-fluoren-9(R,S)-yl]-urea trifluoroacetate] | 10 to 100 | 
O=C(NC1c2ccccc2-c2c(-c3nc4ccncc4[nH]3)cccc21)c1ccnnc1 (centres unmarked) [Example 86, [4-(3H-imidazo[4,5-c]pyridin-2-yl)-9H-fluoren-9-yl]amide of pyridazine-4-carboxylic acid] |  | 1 to 10
OC=C1c2ccccc2-c2c1cccc2-c1nc2cnccc2[nH]1 (mixture of isomers) [Example 13, [4-(1H-imidazo[4,5-c]pyridin-2-yl)-fluoren-(9)-ylidene]-methanol, equimolecular mixture of the Z and E isomers] |  | 10 to 100
O=C(NC1c2ccccc2-c2c(-c3nc4ccc(F)cc4[nH]3)cccc21)c1cccc2ncccc12 (racemic) [Example 84, [4-(6-fluoro-1H-benzimidazol-2-yl)-9H-fluoren-9(R,S)-yl]amide of quinoline-5-carboxylic acid] |  | 1 to 10
O=C(NC1c2ccccc2-c2c(-c3nc4cnccc4[nH]3)cccc21)c1cccc2[nH]ccc12 (racemic) [Example 53, [4-(3H-imidazo[4,5-c]pyridin-2-yl)-9H-fluoren-9(R,S)-yl]amide of 1H-indole-4-carboxylic acid] |  | 1 to 10
O=C(NC1c2ccccc2-c2c(-c3nc4ccncc4[nH]3)cccc21)c1ccnc(CO)c1 (racemic) [Example 94, 2-hydroxymethyl-N-[4-(3H-imidazo[4,5-c]pyridin-2-yl)-9H-fluoren-9(R,S)-yl]-isonicotinamide] |  | 1 to 10
Nc1cccc(C(=O)NC2c3ccccc3-c3c(-c4nc5ccncc5[nH]4)cccc32)c1 (racemic) [Example 115, 3-amino-N-[4-(3H-imidazo[4,5-c]pyridin-2-yl)-9H-fluoren-9(R,S)-yl]-benzamide] |  | 10 to 100
COc1ccc2nc(-c3cccc4c3-c3ccccc3C4NC(=O)c3ccncc3)[nH]c2c1 (racemic) [Example 106, N-[4-(6-methoxy-1H-benzimidazol-2-yl)-9H-fluoren-9(R,S)-yl]-isonicotinamide] |  | 1 to 10
O=C(NC1c2ccccc2-c2c(-c3nc4ccncc4[nH]3)cccc21)c1ccnc(N2CCCC2)c1 (racemic) [Example 120, N-[4-(3H-imidazo[4,5-c]pyridin-2-yl)-9H-fluoren-9(R,S)-yl]-2-pyrrolidin-1-yl-isonicotinamide] |  | 1 to 10
O=C(NCc1ccc(Cl)nc1)C1c2ccccc2-c2c(-c3nc4cnccc4[nH]3)cccc21 (racemic) [Example 2, (6-chloropyridin-3-ylmethyl)-amide of 4-(1H-imidazo[4,5-c]pyridin-2-yl)-9H-fluorene-9(R,S)-carboxylic acid] |  | 10 to 100
Nc1cc(C(=O)NC2c3ccccc3-c3c(-c4nc5ccncc5[nH]4)cccc32)ccn1 (racemic) [Example 73, 2-amino-N-[4-(3H-imidazo[4,5-c]pyridin-2-yl)-9H-fluoren-9(R,S)-yl]-isonicotinamide] |  | < 1
O=C(NC1c2ccccc2-c2c(-c3nc4ccncc4[nH]3)cccc21)c1cc[nH]n1 (racemic) [Example 39, [4-(3H-imidazo[4,5-c]pyridin-2-yl)-9H-fluoren-9(R,S)-yl]amide trifluoroacetate of 1H-pyrazole-3-carboxylic acid] |  | 1 to 10
CCOC(=O)CCNC(=O)NC1c2ccccc2-c2c(-c3nc4ccncc4[nH]3)cccc21 (racemic) [Example 77, ethyl ester of 3-{3-[4-(3H-imidazo[4,5-c]pyridin-2-yl)-9H-fluoren-9(R,S)-yl]-ureido}-propionic acid] |  | 1 to 10
O=C(NC1c2ccccc2-c2c(-c3nc4ccncc4[nH]3)cccc21)c1cc(O)ncn1 (centres unmarked) [Example 93, [4-(3H-imidazo[4,5-c]pyridin-2-yl)-9H-fluoren-9-yl]amide of 6-hydroxypyrimidine-4-carboxylic acid] |  | 1 to 10
CC(C)(C)OC(=O)N1CCC(C(=O)NC2c3ccccc3-c3c(-c4nc5ccncc5[nH]4)cccc32)CC1 (racemic) [Example 33, tert-butyl ester of 4-[4-(3H-imidazo[4,5-c]pyridin-2-yl)-9H-fluoren-9(R,S)-ylcarbamoyl]-piperidine-1-carboxylic acid] |  | 1 to 10
NC(=O)C[C@@H](N)C(=O)NC1c2ccccc2-c2c(-c3nc4cnccc4[nH]3)cccc21 (stereo partly drawn) [Example 65, hydrochloride of (R)-2-amino-N1-[4-(3H-imidazo[4,5-c]pyridin-2-yl)-9H-fluoren-9(R,S)-yl]-succinamide] |  | 1 to 10

Compound | IC50 (Hsp82 ATPase IC50 μM) [µM] | IC50 (read-out: Hsp82 ATPase IC50) [µM]
O=C(O)C1c2ccccc2-c2c(-c3nc4cnccc4[nH]3)cccc21 (racemic) [Example 29, hydrochloride of 4-(1H-imidazo[4,5-c]pyridin-2-yl)-9H-fluorene-9(R,S)-carboxylic acid] |  | 10 to 100
O=C(OC1c2ccccc2-c2c(-c3nc4ccncc4[nH]3)cccc21)c1cccc2ncccc12 (racemic) [Example 124, 4-(3H-imidazo[4,5-c]pyridin-2-yl)-9H-fluoren-9(R,S)-yl of 5-quinolinecarboxylic acid] |  | 1 to 10
c1ccc(CNN=C2c3ccccc3-c3c2cccc3-c2nc3cnccc3[nH]2)cc1 (mixture of isomers) [Example 8, N-benzyl-N′-[4-(1H-imidazo[4,5-c]pyridin-2-yl)-fluoren-9-ylidene]-hydrazine, 55/45 mixture of E and Z isomers] |  | 1 to 10
O=C1CNC(=O)N1C1c2ccccc2-c2c(-c3nc4ccncc4[nH]3)cccc21 (racemic) [Example 80, 3-[4-(3H-imidazo[4,5-c]pyridin-2-yl)-9H-fluoren-9(R,S)-yl]-imidazolidine-2,4-dione] |  | 10 to 100
CNc1cc(C(=O)NC2c3ccccc3-c3c(-c4nc5ccncc5[nH]4)cccc32)ccn1 (racemic) [Example 116, N-[4-(3H-imidazo[4,5-c]pyridin-2-yl)-9H-fluoren-9(R,S)-yl]-2-methylamino-isonicotinamide] |  | 1 to 10
O=C(NC1c2ccccc2-c2c(-c3nc4ccccc4[nH]3)cccc21)c1cccc2ncccc12 (racemic) [Example 83, [4-(1H-benzimidazol-2-yl)-9H-fluoren-9(R,S)-yl]amide of quinoline-5-carboxylic acid] |  | 10 to 100
c1ccc2c(c1)-c1c(-c3nc4ccncc4[nH]3)cccc1C2NCc1cccc2ncccc12 (racemic) [Example 26, trifluoroacetate of N-[4-(3H-imidazo[4,5-c]pyridin-2-yl)-9H-fluoren-9(R,S)-yl]-quinolin-5-yl-methylamine] |  | 1 to 10
NC(=O)CCC(=O)NC1c2ccccc2-c2c(-c3nc4cnccc4[nH]3)cccc21 (racemic) [Example 40, N-[4-(3H-imidazo[4,5-c]pyridin-2-yl)-9H-fluoren-9(R,S)-yl]-succinamide trifluoroacetate] |  | 1 to 10
CN(C)c1cccc2c(S(=O)(=O)NC3c4ccccc4-c4c(-c5nc6ccncc6[nH]5)cccc43)cccc12 (racemic) [Example 52, [4-(3H-imidazo[4,5-c]pyridin-2-yl)-9H-fluoren-9(R,S)-yl]amide trifluoroacetate of 5-dimethylamino-naphthalene-1-sulphonic acid] |  | 10 to 100
O=C(NC1c2ccccc2-c2c(-c3nc4ccncc4[nH]3)cccc21)c1ccnc(Cl)c1 (racemic) [Example 87, 2-chloro-N-[4-(3H-imidazo[4,5-c]pyridin-2-yl)-9H-fluoren-9(R,S)-yl]-isonicotinamide] |  | 1 to 10
CC(C)(C)OC(=O)N[C@@H](CC(N)=O)C(=O)NC1c2ccccc2-c2c(-c3nc4cnccc4[nH]3)cccc21 (stereo partly drawn) [Example 57, tert-butyl ester of {(S)-2-carbamoyl-1-[4-(3H-imidazo[4,5-c]pyridin-2-yl)-9H-fluoren-9(R,S)-ylcarbamoyl]-ethyl}-carbamoic acid] |  | 1 to 10
OC1c2ccccc2-c2c(-c3nc4cnccc4[nH]3)cccc21 (racemic) [Example 3, 4-(3H-imidazo[4,5-c]pyridin-2-yl)-9H-fluoren-9(R,S)-ol] |  | 10 to 100
S=C(NC1c2ccccc2-c2c(-c3nc4cnccc4[nH]3)cccc21)c1cccc2ncccc12 (racemic) [Example 55, [4-(3H-imidazo[4,5-c]pyridin-2-yl)-9H-fluoren-9(R,S)-yl]amide trifluoroacetate of quinoline-5-carbothioic acid] |  | < 1
ON=C1c2ccccc2-c2c1cccc2-c1nc2cnccc2[nH]1 (mixture of isomers) [Example 5, 4-(3H-imidazo[4,5-c]pyridin-2-yl)-fluoren-9-one oxime (Z, E)] |  | 1 to 10
CCOC(=O)CNC(=O)NC1c2ccccc2-c2c(-c3nc4ccncc4[nH]3)cccc21 (racemic) [Example 78, ethyl ester of {3-[4-(3H-imidazo[4,5-c]pyridin-2-yl)-9H-fluoren-9(R,S)-yl]-ureido}-acetic acid] |  | 10 to 100
O=C(NCc1ccc(F)cc1)NC1c2ccccc2-c2c(-c3nc4ccncc4[nH]3)cccc21 (racemic) [Example 75, 1-(4-fluorobenzyl)-3-[4-(3H-imidazo[4,5-c]pyridin-2-yl)-9H-fluoren-9(R,S)-yl]-urea] |  | 10 to 100
